According to patent US8202860B2, “Methods and compositions for treating primary and secondary tumors of the central nervous system (CNS)” (Ed. Geistlich Soehne AG fuer Chemische Industrie, priority 1999, dated 2012):
“Also recorded” adds a separate entry of the source.

Tests used:
[1] = cited from earlier work
[2] = system: glial (C6) tumor cell line; assay: growth inhibition of glial tumor cell line in cell culture; assay type: cell-based, rat
Experimental: (§1) For the latter cell line, however, the experiments are not complete as yet. […] The effect was concentration-dependent. […] The tumor cells were inhibited selectively beginning after 30 minutes. Following 1 to 3 hours about 90% of the tumor cells were inhibited. For the cell culture, cells were used in RPM1 1640 medium and plated in Falcon flasks.

[3] = system: CNS tumor cell lines (HT22, C6, U373); assay: inhibition of CNS tumor cells in culture (lines reported together), cytological changes recorded over time; assay type: cell-based; conditions: for time after which inhibition of tumor cells started: Results section (HT22, C6)
[4] = system: glioblastoma multiform-tumor cells; assay: tissue-culture of glioblastoma multiform tumor cells
[5] = system: mixed neuronal and glial (U373) tumor cell line; assay: growth inhibition of mixed neuronal and glial tumor cell line in cell culture; assay type: cell-based, human; conditions: experiments are not complete as yet
Experimental: as §1

[6] = system: neuronal (HT22) tumor cell line; assay: growth inhibition of neuronal tumor cell line in cell culture; assay type: cell-based, mouse
Experimental: as §1

[7] = system: primary CNS-cells (brain cells of rat fetuses); assay: effect on primary CNS cells in cell culture; assay type: cell-based
[8] = following 1 to 3 hours, Example 1
[9] = following about 1 to 2 hours, Results section

O=S1(=O)CCN(CN2CCS(=O)(=O)NC2)CN1 [Taurolidine, Bis-(1,1-dioxoperhydro-1,2,4-thiadiazinyl-4)methane]
water solubility [1]: up to 2% | direct inhibition of growth of tumor cell line [2]: inhibit directly the growth | time after which inhibition of tumor cells started [3]: 10 min | tumor cells inhibited [3, 8]: about 90% | tumor cells inhibited [3, 9]: 90% | concentration that inhibits or kills tumor cells in tissue-culture [4]: 0.1 to 4 mg/mL | direct inhibition of growth of tumor cell line [5]: inhibit directly the growth | direct inhibition of growth of tumor cell line [6]: inhibit directly the growth

O=S1(=O)CCNCN1 [Taurultam]
cytological effect on primary CNS-cells ([7]; following 48 hours): no significant cytological effect | effect on CNS nerve cells, including stem cells of embryo meningeal cells ([7]; following administration of Taurolidine/Taurultam solutions): remain unaffected | growth inhibition of normal/primary central nervous system cells (selectivity versus tumor cells) ([7]; primary cell lines of fetal rat central nervous system, compared to tumor cells): required significantly higher concentrations and a significantly longer contact time for inhibition; also recorded: not significantly inhibited | direct inhibition of growth of tumor cell line [2]: inhibit directly the growth | effectiveness relative to Taurolidine [3]: almost twice as effective as Taurolidine | time after which selective inhibition of tumor cells began ([3]; Example 1): 30 min | time after which inhibition of tumor cells started [3]: 10 min | tumor cells inhibited [3, 8]: about 90% | tumor cells inhibited [3, 9]: 90% | direct inhibition of growth of tumor cell line [5]: inhibit directly the growth | direct inhibition of growth of tumor cell line [6]: inhibit directly the growth
